Activity calls are given as the source filed them. No cut-off for these calls is given here.
Assays:
[1] = test system: RWPE-1; test: Cytotoxicity against human RWPE-1 cells; type: cell-based
[2] = test system: CWR22R; test: Cytotoxicity against human 22Rv1 cells; type: functional, cell-based
[3] = Selective index, ratio of IC50 for human RWPE1 to IC50 for human LNCaP C4-2B cells; type: toxicity; settings: RWPE1 cells and LNCaP C4-2B cells, read-out: Selectivity Index
[4] = test system: MDA-MB-231; test: Cytotoxicity against human MDA-MB-231 cells; type: functional, cell-based
[5] = test system: LNCaP C4-2B; test: Cytotoxicity against human C42B cells; type: functional, cell-based
[6] = test system: NCI-H446; test: Cytotoxicity against human H446 cells; type: functional, cell-based
[7] = test system: MGC-803; test: Cytotoxicity against human MGC-803 cells; type: functional, cell-based
[8] = test system: CWR22R; test: Inhibition of androgen receptor protein expression in human 22Rv1 cells incubated for […] by Immunoblotting analysis; type: functional, cell-based
[9] = test system: LNCaP C4-2B; test: Inhibition of androgen receptor protein expression in human C4-2B cells incubated for […] by Immunoblotting analysis; type: functional, cell-based
[10] = test system: LNCaP C4-2B; test: Inhibition of androgen receptor mRNA expression in human C4-2B cells incubated for […] by qRT-PCR analysis; type: functional, cell-based
[11] = test system: CWR22R; test: Induction of apoptosis in human 22Rv1 cells assessed as inhibition of Cmyc protein expression at 0.15 to 0.6 uM incubated for […] by Immunoblotting analysis; type: functional, cell-based; settings: dose 0.15-0.6 µM, time […]
[12] = test system: LNCaP C4-2B; test: Induction of apoptosis in human C4-2B cells assessed as inhibition of Cmyc protein expression at 0.075 to 0.3 uM incubated for […] by Immunoblotting analysis; type: functional, cell-based; settings: dose 0.075-0.3 µM
[13] = Selective index, ratio of IC50 for human RWPE1 to IC50 for human H446 cells
[14] = test system: LNCaP C4-2B; test: Induction of cell cycle arrest in human C4-2B cells assessed as accumulation of cells at G0/G1 phase at 0.3 uM incubated for 48 hrs by RED-B-HLi fluorescence assay (reference value: 41.57%); type: functional
[15] = test system: LNCaP C4-2B; test: Induction of cell cycle arrest in human C4-2B cells assessed as accumulation of cells at S phase at 0.3 uM incubated for 48 hrs by RED-B-HLi fluorescence assay (reference value: 42.69%); type: functional
[16] = test system: LNCaP C4-2B; test: Induction of cell cycle arrest in human C4-2B cells assessed as accumulation of cells at G2-M phase at 0.3 uM incubated for 48 hrs by RED-B-HLi fluorescence assay (reference value: 15.74%); type: functional
[17] = test system: LNCaP C4-2B; test: Induction of apoptosis in human C4-2B cells assessed as increase in caspase 3/7 activity at 0.3 uM after 24 hrs relative to control; type: functional, cell-based
[18] = test system: CWR22R; test: Induction of apoptosis in human 22Rv1 cells assessed as increase in caspase 3/7 activity at 0.3 uM after 24 hrs relative to control; type: functional, cell-based
[19] = test system: LNCaP C4-2B; test: Induction of apoptosis in human C4-2B cells assessed as increase in cleaved 7 level after 24 hrs by immunoblotting analysis relative to control; type: functional, cell-based
[20] = test system: CWR22R; test: Induction of apoptosis in human 22Rv1 cells assessed as increase in cleaved 7 level after 24 hrs by immunoblotting analysis relative to control; type: functional, cell-based
[21] = test system: LNCaP C4-2B; test: Induction of apoptosis in human C4-2B cells assessed as increase in cleaved PARP1 level after 24 hrs by immunoblotting analysis relative to control; type: functional, cell-based
[22] = test system: CWR22R; test: Induction of apoptosis in human 22Rv1 cells assessed as increase in cleaved PARP1 level after 24 hrs by immunoblotting analysis relative to control; type: functional, cell-based
[23] = test system: LNCaP C4-2B; test: Inhibition of colony formation in human C4-2B cells at 0.075 to 0.3 uM for 12 days by crystal violet staining based assay; type: functional, cell-based; settings: dose 0.075-0.3 µM, time 12.0 day
[24] = test system: CWR22R; test: Inhibition of colony formation in human 22Rv1 cells at 0.075 to 0.3 uM for 12 days by crystal violet staining based assay; type: functional, cell-based; settings: dose 0.075-0.3 µM, time 12.0 day
[25] = test system: CWR22R; test: Inhibition of androgen receptor mRNA expression in human 22Rv1 cells incubated for […] by […] analysis; type: functional, cell-based
[26] = test system: LNCaP C4-2B; test: Induction of apoptosis in human C4-2B cells assessed as inhibition of Cyclin E protein expression at 0.075 to 0.3 uM incubated for […] by Immunoblotting analysis; type: functional, cell-based; settings: dose 0.075-0.3 µM
[27] = test system: CWR22R; test: Induction of apoptosis in human 22Rv1 cells assessed as inhibition of Cyclin E protein expression at 0.15 to 0.6 uM incubated for […] by Immunoblotting analysis; type: functional, cell-based; settings: dose 0.15-0.6 µM
[28] = test system: LNCaP C4-2B; test: Induction of apoptosis in human C4-2B cells assessed as inhibition of KLK2 mRNA expression at 0.075 to 0.3 uM incubated for […] by qRT-PCR analysis; type: functional, cell-based; settings: dose 0.075-0.3 µM
[29] = test system: CWR22R; test: Induction of apoptosis in human 22Rv1 cells assessed as inhibition of KLK2 mRNA expression at 0.15 to 0.6 uM incubated for […] by qRT-PCR analysis; type: functional, cell-based; settings: dose 0.15-0.6 µM
[30] = test system: LNCaP C4-2B; test: Induction of apoptosis in human C4-2B cells assessed as inhibition of KLK3 mRNA expression at 0.075 to 0.3 uM incubated for […] by qRT-PCR analysis; type: functional, cell-based; settings: dose 0.075-0.3 µM
[31] = test system: CWR22R; test: Induction of apoptosis in human 22Rv1 cells assessed as inhibition of KLK3 mRNA expression at 0.15 to 0.6 uM incubated for […] by qRT-PCR analysis; type: functional, cell-based; settings: dose 0.15-0.6 µM
[32] = test system: LNCaP C4-2B; test: Induction of morphological changes in human C4-2B cells assessed as decrease in cell size incubated for 24 hrs by microscopy; type: functional, cell-based
[33] = test system: LNCaP C4-2B; test: Induction of morphological changes in human C4-2B cells assessed as increase in intracellular spaces incubated for 24 hrs by microscopy; type: functional, cell-based

Structure (SMILES): CNC(=O)c1ccc(N2C(=S)N(c3ccc(C#N)c(C(F)(F)F)c3)C(=O)C2(C)C)cc1F [ENZALUTAMIDE]
- IC50 [1]: > 40 µM
- IC50 [2]: 38 µM
- selectivity ratio [3]: > 2.2

Structure (SMILES): COC1=C2C[C@@H](C)C[C@H](OC)[C@H](O)[C@@H](C)/C=C(\C)[C@H](OC(N)=O)[C@@H](OC)/C=C\C=C(/C)C(=O)NC(=CC1=O)C2=O [GELDANAMYCIN]
- IC50 [4]: 1.9 µM
- IC50 [1]: 3.8 µM
- IC50 [5]: 0.5 µM
- IC50 [2]: 0.85 µM
- IC50 [6]: 2.2 µM
- IC50 [7]: 3.3 µM
- selectivity ratio [3]: 7.6

Structure (SMILES): CC[C@@H](/C=C/C(=O)[C@@H](C)[C@H](O)[C@H](C)[C@H]1OC(=O)/C=C/C=C/[C@H](C)[C@@H]([C@@H](C)[C@@H](O)[C@H](C)C(=O)/C=C/[C@H](CC)[C@@H](C)O)OC(=O)/C=C/C=C/[C@@H]1C)[C@@H](C)O
- IC50 [4]: > 40 µM
- IC50 [5]: 25 µM
- IC50 [2]: > 40 µM
- IC50 [6]: 25 µM
- IC50 [7]: > 40 µM

Structure (SMILES): COC[C@]1(CCC(C)=C(C)C)Nc2ccc(C(=O)NC3=C(O)CCC3=O)cc2C[C@@H]1Cl
- inhibition [8]: Active
- inhibition [9]: Active
- inhibition [10]: Active
- IC50 [4]: 0.2 µM
- IC50 [1]: 0.21 µM
- Activity [11]: Active
- Activity [12]: Active
- IC50 [5]: 0.067 µM
- IC50 [2]: 0.27 µM
- IC50 [6]: 0.07 µM
- IC50 [7]: 0.11 µM
- Selectivity Index [13]: 3.1
- Activity [14]: 56.03%
- Activity [15]: 24.3%
- Activity [16]: 19.67%
- Activity [17]: Active
- Activity [18]: Active
- Activity [19]: Dose-Dependent Effect
- Activity [20]: Dose-Dependent Effect
- Activity [21]: Dose-Dependent Effect
- Activity [22]: Dose-Dependent Effect
- inhibition [23]: Active
- inhibition [24]: Active
- inhibition [25]: Active
- Activity [26]: Active
- Activity [27]: Active
- Activity [28]: Active
- Activity [29]: Active
- Activity [30]: Active
- Activity [31]: Active
- Activity [32]: Active
- Activity [33]: Active

Structure (SMILES): CC[C@@H]1[C@@H](C)O[C@@](OC)([C@@H](C)[C@H](O)[C@H](C)[C@H]2OC(=O)/C=C/C=C/[C@H](C)[C@@H]([C@@H](C)[C@@H](O)[C@H](C)[C@@]3(OC)C[C@@H](OC)[C@H](CC)[C@@H](C)O3)OC(=O)/C=C/C=C/[C@@H]2C)C[C@H]1OC
- IC50 [4]: > 40 µM
- IC50 [5]: > 40 µM
- IC50 [2]: > 40 µM
- IC50 [6]: > 40 µM
- IC50 [7]: > 40 µM

Structure (SMILES): COC(=O)[C@@]1(O)C(OC)=C2C[C@@H](C)C[C@H](OC)[C@H](O)[C@@H](C)/C=C(\C)[C@H](OC(N)=O)[C@@H](OC)/C=C\C=C(/C)C(=O)N[C@@H]1C2=O
- IC50 [4]: > 40 µM
- IC50 [5]: > 40 µM
- IC50 [2]: > 40 µM
- IC50 [6]: 2.9 µM
- IC50 [7]: > 40 µM

Structure (SMILES): CO[C@H]1C[C@H](C)Cc2cc(O)cc(c2)NC(=O)/C(C)=C/CC[C@H](OC)[C@@H](OC(N)=O)/C(C)=C/[C@H](C)[C@H]1O
- IC50 [4]: > 40 µM
- IC50 [5]: 32 µM
- IC50 [2]: 35 µM
- IC50 [6]: 28 µM
- IC50 [7]: > 40 µM

Structure (SMILES): CO[C@H]1/C=C\C=C(/C)C(=O)NC2=CC(=O)C(O)=C(C[C@@H](C)C[C@H](OC)[C@H](O)[C@@H](C)/C=C(\C)[C@@H]1OC(N)=O)C2=O
- IC50 [4]: 17 µM
- IC50 [5]: 11 µM
- IC50 [2]: 25 µM
- IC50 [6]: 25 µM
- IC50 [7]: 19 µM

Structure (SMILES): CC[C@@H]1[C@@H](C)O[C@@](OC)(/C(C)=C/[C@H](C)[C@H]2OC(=O)/C=C/C=C/[C@H](C)[C@@H]([C@@H](C)/C=C(\C)[C@@]3(OC)C[C@@H](OC)[C@H](CC)[C@@H](C)O3)OC(=O)/C=C/C=C/[C@@H]2C)C[C@H]1OC
- IC50 [4]: 7.2 µM
- IC50 [5]: 14 µM
- IC50 [2]: 23 µM
- IC50 [6]: 25 µM
- IC50 [7]: 10 µM

Structure (SMILES): COC1=C2C[C@@H](C)C[C@H](OC)[C@H](O)[C@@H](C)/C=C(\C)[C@H](OC(N)=O)[C@@H](OC)/C=C\C=C(/C)C(=O)NC(=C(SC)C1=O)C2=O
- IC50 [4]: 5.2 µM
- IC50 [5]: 3.6 µM
- IC50 [2]: 3.7 µM
- IC50 [6]: 3.9 µM
- IC50 [7]: 7.9 µM

— ChEMBL document CHEMBL4808199, “Cyclopentenone-Containing Tetrahydroquinoline and Geldanamycin Alkaloids from Streptomyces malaysiensis as Potential Anti-Androgens against Prostate Cancer Cells” (J Nat Prod, 2021)
